Reference: patent US20080139558A1, “QUINOLONES USEFUL AS INDUCIBLE NITRIC OXIDE SYNTHASE INHIBITORS” (KALYPSYS, INC., priority 2006, published 2008)

Target: T1, human iNOS (Homo sapiens, UniProt P35228)
T1 construct: expressed in transfected cells; host or cells: HEK293
Experiment: DAN assay of nitric oxide production (hiNOS)
Format: cell-based
Settings: enzyme expressed in HEK293 cells transiently transfected with human iNOS
Description: The source of nitric oxide synthase (NOS) enzyme can be generated in several ways including induction of endogenous iNOS using cytokines and/or lipopolysaccharide (LPS) in various cell types known in the art. Alternatively, the gene encoding the enzyme can be cloned and the enzyme can be generated in cells via heterologous expression from a transient or stable expression plasmid with suitable features for protein expression as are known in the art. Enzymatic activity (nitric oxide production) is calcium independent for iNOS, while the constitutive NOS isoforms, nNOS and eNOS, become active with the addition of various cofactors added to cellular media or extract as are well known in the art. Enzymes specified in Table 1 were expressed in HEK293 cells transiently transfected with human iNOS.
A major metabolic pathway for nitric oxide is to nitrate and nitrite, which are stable metabolites within tissue culture, tissue, plasma, and urine (S Moncada, A Higgs, N Eng J Med 329, 2002 (1993)).
The level of nitrate or nitrite in the specimen can be quantified by any method known in the art which provides adequate sensitivity and reproducibility. A variety of protocols have also been described for detecting and quantifying nitrite and nitrate levels in biological fluids by ion chromatography (e.g., A Everett et al., J. Chromatogr. 706, 437 (1995); J M Monaghan et al., J. Chromatogr. 770, 143 (1997)), high-performance liquid chromatography (e.g., M Kelm et al., Cardiovasc. Res. 41, 765 (1999)), and capillary electrophoresis (MA Friedberg et al., J. Chromatogr. 781, 491 (1997)). For example, 2,3-diaminonaphthalene reacts with the nitrosonium cation that forms spontaneously from NO to form the fluorescent product 1H-naphthotriazole. Using 2,3-diaminonaphthalene (“DAN”), researchers have developed a rapid, quantitative fluorometric assay that can detect from 10 nM to 10 μM nitrite and is compatible with a multi-well microplate format. […] DAN reacts with nitrite ion and gives fluorescent naphthotriazole (MC Carré et al., Analusis 27, 835-838 (1999)). Table 1 provides the test results of various compounds of the subject invention using the DAN assay.
A specimen can be processed prior to determination of nitrate or nitrite as required by the quantification method, or in order to improve the results, or for the convenience of the investigator. For example, processing can involve centrifuging, filtering, or homogenizing the sample. If the sample is whole blood, the blood can be centrifuged to remove cells and the nitrate or nitrite assay performed on the plasma or serum fraction. If the sample is tissue, the tissue can be dispersed or homogenized by any method known in the art prior to determination of nitrate or nitrite. It may be preferable to remove cells and other debris by centrifugation or another method and to determine the nitrate or nitrite level using only the fluid portion of the sample, or the extracellular fluid fraction of the sample. The sample can also be preserved for later determination, for example by freezing of urine or plasma samples. When appropriate, additives may be introduced into the specimen to preserve or improve its characteristics for use in the nitrate or nitrite assay.
The “level” of nitrate, nitrite, or other NO-related product usually refers to the concentration (in moles per liter, micromoles per liter, or other suitable units) of nitrate or nitrite in the specimen, or in the fluid portion of the specimen. However, other units of measure can also be used to express the level of nitrate or nitrite. For example, an absolute amount (in micrograms, milligrams, nanomoles, moles, or other suitable units) can be used, particularly if the amount refers back to a constant amount (e.g., grams, kilograms, milliliters, liters, or other suitable units) of the specimens under consideration. A number of commercially available kits can be used. […]

T1 sequence (P35228 whole entry): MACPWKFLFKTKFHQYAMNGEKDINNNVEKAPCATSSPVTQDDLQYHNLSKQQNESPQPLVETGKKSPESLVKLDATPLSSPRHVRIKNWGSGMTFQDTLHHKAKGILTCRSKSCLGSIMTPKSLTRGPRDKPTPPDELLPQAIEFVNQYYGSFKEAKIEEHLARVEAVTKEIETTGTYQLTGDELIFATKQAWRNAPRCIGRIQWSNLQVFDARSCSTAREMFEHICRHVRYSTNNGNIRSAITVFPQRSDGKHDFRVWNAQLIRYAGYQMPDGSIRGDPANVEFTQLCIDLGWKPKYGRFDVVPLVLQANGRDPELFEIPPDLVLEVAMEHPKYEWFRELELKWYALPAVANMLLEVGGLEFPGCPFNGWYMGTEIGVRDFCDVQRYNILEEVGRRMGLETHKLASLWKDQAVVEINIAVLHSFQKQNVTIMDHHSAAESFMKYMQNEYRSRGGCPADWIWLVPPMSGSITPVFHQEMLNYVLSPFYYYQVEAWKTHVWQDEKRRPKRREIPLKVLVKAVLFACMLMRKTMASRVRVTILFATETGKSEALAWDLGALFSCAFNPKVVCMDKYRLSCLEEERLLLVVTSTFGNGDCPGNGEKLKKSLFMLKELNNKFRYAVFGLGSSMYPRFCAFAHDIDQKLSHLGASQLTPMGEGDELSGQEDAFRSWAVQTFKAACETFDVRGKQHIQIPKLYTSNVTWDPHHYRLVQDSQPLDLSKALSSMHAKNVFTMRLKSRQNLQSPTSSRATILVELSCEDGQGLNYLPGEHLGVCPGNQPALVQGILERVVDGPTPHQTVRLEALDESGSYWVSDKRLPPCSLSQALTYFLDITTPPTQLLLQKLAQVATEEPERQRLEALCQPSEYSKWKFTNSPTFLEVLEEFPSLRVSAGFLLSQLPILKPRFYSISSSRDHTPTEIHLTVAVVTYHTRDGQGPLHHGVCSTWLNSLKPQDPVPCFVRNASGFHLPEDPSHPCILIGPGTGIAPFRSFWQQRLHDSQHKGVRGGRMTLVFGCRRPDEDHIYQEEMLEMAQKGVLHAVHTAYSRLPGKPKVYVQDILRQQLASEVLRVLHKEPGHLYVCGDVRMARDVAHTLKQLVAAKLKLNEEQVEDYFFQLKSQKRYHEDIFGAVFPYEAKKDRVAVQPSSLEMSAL

| Compound | EC50 [µM] |
| --- | --- |
| O=c1cc(Cn2c(CC3CCCC3)nc3ccccc32)c2ccc(F)c(F)c2[nH]1 [Example 215, 4-((2-(Cyclopentylmethyl)-1H-benzo[d]imidazol-1-yl)methyl)-7,8-difluoroquinolin-2(1H)-one] | ≤ 5 |
| O=c1cc(Cn2c(C3CCC3)nc3ccccc32)c2ccc(F)c(F)c2[nH]1 [Example 207, 4-((2-Cyclobutyl-1H-benzo[d]imidazol-1-yl)methyl)-7,8-difluoroquinolin-2(1H)-one] | ≤ 5 |
| Cc1nc(Br)sc1C(=O)N(Cc1cc(=O)[nH]c2ccccc12)c1ccccc1 [Example 99, 2-Bromo-4-methyl-N-((2-oxo-1,2-dihydroquinolin-4-yl)methyl)-N-phenylthiazole-5-carboxamide] | ≤ 5 |
| CN(C)c1ccccc1-c1nc2ccccc2n1Cc1cc(=O)[nH]c2c(F)c(F)ccc12 [Example 242, 4-((2-(2-(Dimethylamino)phenyl)-1H-benzo[d]imidazol-1-yl)methyl)-7,8-difluoroquinolin-2(1H)-one] | > 5 |
| CC(C)S(=O)(=O)N(Cc1cc(=O)[nH]c2c(F)c(F)ccc12)c1cccc(Cl)c1 [Example 188, N-(3-Chlorophenyl)-N-((7,8-difluoro-2-oxo-1,2-dihydroquinolin-4-yl)methyl)propane-2-sulfonamide] | ≤ 5 |
| N#Cc1ccccc1C(=O)N(Cc1cc(=O)[nH]c2c(F)cccc12)c1cccc(Cl)c1 [Example 64, N-(3-Chlorophenyl)-2-cyano-N-((8-fluoro-2-oxo-1,2-dihydroquinolin-4-yl)methyl)benzamide] | > 5 |
| O=C(c1ccccc1)N(Cc1cc(=O)[nH]c2ccccc12)c1ccccc1 [Example 6, N-[(2-Oxo-1,2-dihydroquinolin-4-yl)methyl]-N-phenylbenzamide] | > 5 |
| COc1ccccc1C(=O)N(Cc1cc(=O)[nH]c2c(F)cccc12)c1cccc(Cl)c1 [Example 60, N-(3-Chlorophenyl)-N-((8-fluoro-2-oxo-1,2-dihydroquinolin-4-yl)methyl)-2-methoxybenzamide] | > 5 |
| O=C(c1ccccn1)N(Cc1cc(=O)[nH]c2ccccc12)c1ccccc1 [Example 32, N-((2-Oxo-1,2-dihydroquinolin-4-yl)methyl)-N-phenylpicolinamide] | > 5 |
| Cc1cnc(C(=O)N(Cc2cc(=O)[nH]c3ccccc23)c2ccccc2)cn1 [Example 35, 5-Methyl-N-((2-oxo-1,2-dihydroquinolin-4-yl)methyl)-N-phenylpyrazine-2-carboxamide] | ≤ 5 |
| Cc1ncsc1C(=O)N(Cc1cc(=O)[nH]c2c(F)ccc(F)c12)c1cccc(Cl)c1 [Example 52, N-(3-Chlorophenyl)-N-((5,8-difluoro-2-oxo-1,2-dihydroquinolin-4-yl)methyl)-4-methylthiazole-5-carboxamide] | > 5 |
| CC(=O)N(Cc1cc(=O)[nH]c2ccccc12)c1ccccc1 [Example 3, N-[(2-Oxo-1,2-dihydroquinolin-4-yl)methyl]-N-phenylacetamide] | > 5 |
| Cc1ncsc1C(=O)N(Cc1cc(=O)[nH]c2c(F)c(F)ccc12)c1ccc(F)c(Cl)c1 [Example 181, N-(3-Chloro-4-fluorophenyl)-N-((7,8-fluoro-2-oxo-1,2-dihydroquinolin-4-yl)methyl)-4-methylthiazole-5-carboxamide] | ≤ 5 |
| Cn1nccc1-c1nc2ccccc2n1Cc1cc(=O)[nH]c2c(F)c(F)ccc12 [Example 233, 7,8-Difluoro-4-((2-(1-methyl-1H-pyrazol-5-yl)-1H-benzo[d]imidazol-1-yl)methyl)quinolin-2(1H)-one] | ≤ 5 |
| Cc1ncsc1C(=O)N(Cc1cc(=O)[nH]c2cc(F)c(F)cc12)c1cccc(Cl)c1 [Example 109, N-(3-Chlorophenyl)-N-((6,7-difluoro-2-oxo-1,2-dihydroquinolin-4-yl)methyl)-4-methylthiazole-5-carboxamide] | ≤ 5 |
| CC(C)(C)OC(=O)N1CCC(c2nc3ccccc3n2Cc2cc(=O)[nH]c3c(F)c(F)ccc23)CC1 [Example 205, tert-Butyl 4-(1-((7,8-difluoro-2-oxo-1,2-dihydroquinolin-4-yl)methyl)-1H-benzo[d]imidazol-2-yl)piperidine-1-carboxylate] | > 5 |
| O=C(C1CC1)N(Cc1cc(=O)[nH]c2c(F)cccc12)c1cccc(Cl)c1 [Example 81, N-(3-Chlorophenyl)-N-((8-fluoro-2-oxo-1,2-dihydroquinolin-4-yl)methyl)cyclopropanecarboxamide] | > 5 |
| Cc1ncsc1C(=O)N(Cc1cc(=O)[nH]c2c(F)c(F)ccc12)c1cc(F)cc(Cl)c1 [Example 89] | ≤ 5 |

More lines, now with the values ahead:

| EC50 [µM] | Compound |
| --- | --- |
| > 5 | CC(C)C(=O)N(Cc1cc(=O)[nH]c2c(F)cccc12)c1cccc(Cl)c1 [Example 80, N-(3-Chlorophenyl)-N-((8-fluoro-2-oxo-1,2-dihydroquinolin-4-yl)methyl)isobutyramide] |
| ≤ 5 | COc1cccc(N(Cc2cc(=O)[nH]c3c(F)cccc23)C(=O)c2scnc2C)c1 [Example 262, N-((8-Fluoro-2-oxo-1,2-dihydroquinolin-4-yl)methyl)-N-(3-methoxyphenyl)-4-methylthiazole-5-carboxamide] |
| ≤ 5 | O=C(c1nnc[nH]1)N(Cc1cc(=O)[nH]c2c(F)c(F)ccc12)c1cccc(Cl)c1 [Example 168, N-(3-Chlorophenyl)-N-[(7,8-difluoro-2-oxo-1,2-dihydroquinolin-4-yl)methyl]-4H-1,2,4-triazole-3-carboxamide] |
| > 5 | CC(C)c1nn(Cc2cc(=O)[nH]c3c(F)c(F)ccc23)c2ccccc12 [Example 239, 7,8-Difluoro-4-((3-isopropyl-1H-indazol-1-yl)methyl)quinolin-2(1H)-one] |
| > 5 | O=c1cc(CN2CCN(c3ccccc3F)CC2)c2ccccc2[nH]1 [Example 106, 4-((4-(2-Fluorophenyl)piperazin-1-yl)methyl)quinolin-2(1H)-one] |
| > 5 | Cc1ccncc1C(=O)N(Cc1cc2cccc(F)c2[nH]c1=O)c1cccc(Cl)c1 [Example 172, N-(3-Chlorophenyl)-N-((8-fluoro-2-oxo-1,2-dihydroquinolin-3-yl)methyl)-4-methylnicotinamide] |
| > 5 | O=c1cc(CN(c2cccc(Cl)c2)c2ccccn2)c2cccc(F)c2[nH]1 [Example 77, 4-(((3-Chlorophenyl)(pyridin-2-yl)amino)methyl)-8-fluoroquinolin-2(1H)-one] |
| > 5 | CC(C)c1nc2cc(F)c(F)cc2n1Cc1cc(=O)[nH]c2c(F)c(F)ccc12 [Example 229, 7,8-Difluoro-4-((5,6-difluoro-2-isopropyl-1H-benzo[d]imidazol-1-yl)methyl)quinolin-2(1H)-one] |
| ≤ 5 | CCCc1nc2ccccc2n1Cc1cc(=O)[nH]c2c(F)c(F)ccc12 [Example 219, 7,8-Difluoro-4-((2-propyl-1H-benzo[d]imidazol-1-yl)methyl)quinolin-2(1H)-one] |
| > 5 | CN(C)c1cccc(C(=O)N(Cc2cc(=O)[nH]c3c(F)cccc23)c2cccc(Cl)c2)c1 [Example 75, N-(3-Chlorophenyl)-3-(dimethylamino)-N-((8-fluoro-2-oxo-1,2-dihydroquinolin-4-yl)methyl)benzamide] |
| ≤ 5 | Cc1ccc2c(CN(C(=O)c3ccco3)c3ccccc3)cc(=O)[nH]c2c1 [Example 20, N-((7-Methyl-2-oxo-1,2-dihydroquinolin-4-yl)methyl)-N-phenylfuran-2-carboxamide] |
| > 5 | Cc1ncccc1C(=O)N(Cc1cc(=O)[nH]c2c(F)cccc12)c1cccc(Cl)c1 [Example 71, N-(3-Chlorophenyl)-N-((8-fluoro-2-oxo-1,2-dihydroquinolin-4-yl)methyl)-2-methylnicotinamide] |
| > 5 | O=C(c1ccccn1)N(Cc1cc(=O)[nH]c2c(F)cccc12)c1cccc(Cl)c1 [Example 67, N-(3-Chlorophenyl)-N-((8-fluoro-2-oxo-1,2-dihydroquinolin-4-yl)methyl)picolinamide] |
